Measurements as given in the supplement of paper PMC10307832.

Tests used:
Experiment in all cases: relative viability (nuclei count vs DMSO), 5 days (fraction); higher = more cells survive
[1] = compound: C[C@@H](C(=O)N[C@@H](C1CCCCC1)C(=O)N2CCC[C@H]2C(=O)N[C@@H]3[C@@H](CC4=CC=CC=C34)OCC#CC#CCO[C@@H]5CC6=CC=CC=C6[C@@H]5NC(=O)[C@@H]7CCCN7C(=O)[C@H](C8CCCCC8)NC(=O)[C@H](C)NC)NC [AZD5582] + C[C@@H](Oc1cc(-c2cnn(C3CCNCC3)c2)cnc1N)c1c(Cl)ccc(F)c1Cl [Crizotinib] (partner 1 µM)
Method in brief: (§1)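 Relative viability divides the nuclei count in treated wells by that in vehicle wells. Lung cancer cell lines were seeded in 1536-well plates, dosed by pin tool the next day, and fixed and stained after 5 days in one step with final 0.05% Triton X-100, 1% formaldehyde and 1 ug/ml Hoechst. Dosing was a single drug or a fixed anchor-drug dose plus five library-drug doses (not always all listed) in √10 steps, and values are medians of duplicate plates imaged at 4×.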

[2] = compound: C[C@@H](C(=O)N[C@@H](C1CCCCC1)C(=O)N2CCC[C@H]2C(=O)N[C@@H]3[C@@H](CC4=CC=CC=C34)OCC#CC#CCO[C@@H]5CC6=CC=CC=C6[C@@H]5NC(=O)[C@@H]7CCCN7C(=O)[C@H](C8CCCCC8)NC(=O)[C@H](C)NC)NC [AZD5582] + C[C@]1(O)C[C@@H](c2nc(-c3ccc4ccc(-c5ccccc5)nc4c3)c3c(N)nccn32)C1 [Linsitinib] (partner 1 µM)
Method in brief: as §1

[3] = compound: Cn1nnc2c(C(N)=O)ncn2c1=O [Temozolomide] + CC(=O)c1c(C)c2cnc(Nc3ccc(N4CCNCC4)cn3)nc2n(C2CCCC2)c1=O [Palbociclib] (partner 0.5 µM)
Method in brief: as §1

[4] = compound: Cn1nnc2c(C(N)=O)ncn2c1=O [Temozolomide] + Nc1ncn([C@H]2C[C@H](O)[C@@H](CO)O2)c(=O)n1 [Decitabine] (partner 2 µM)
Method in brief: as §1

Cell Line | relative viability ([1]; first compound 0.001581 µM) | relative viability ([1]; first compound 0.005 µM) | relative viability ([1]; first compound 0.01581 µM) | relative viability ([1]; first compound 0.05 µM) | relative viability ([2]; first compound 0.001581 µM) | relative viability ([2]; first compound 0.005 µM) | relative viability ([2]; first compound 0.01581 µM) | relative viability ([2]; first compound 0.05 µM) | relative viability ([3]; first compound 0.2 µM) | relative viability ([3]; first compound 0.6325 µM) | relative viability ([3]; first compound 2 µM) | relative viability ([3]; first compound 6.325 µM) | relative viability ([3]; first compound 20 µM) | relative viability ([4]; first compound 0.2 µM) | relative viability ([4]; first compound 0.6325 µM) | relative viability ([4]; first compound 2 µM) | relative viability ([4]; first compound 6.325 µM) | relative viability ([4]; first compound 20 µM)
NCI-H23 | 0.328 | 0.316 | 0.498 | 0.299 | 0.621 | 0.421 | 0.529 | 0.418 | 0.59 | 0.55 | 0.504 | 0.403 | 0.433 | 0.303 | 0.309 | 0.293 | 0.292 | 0.327
NCI-H322M | 0.852 | 0.944 | 0.636 | 1.31 | 0.871 | 1.13 | 0.887 | 1.02 | 0.451 | 0.483 | 0.465 | 0.441 | 0.414 | 0.619 | 0.704 | 0.697 | 0.717 | 0.576
NCI-H358 | 0.505 | 0.676 | 0.704 | 0.455 | 0.817 | 0.998 | 0.899 | 0.847 | 0.137 | 0.143 | 0.128 | 0.136 | 0.131 | 0.19 | 0.224 | 0.223 | 0.228 | 0.207
NCI-H441 | 0.621 | 0.567 | 0.62 | 0.491 | 0.453 | 0.53 | 0.454 | 0.389 | 0.23 | 0.211 | 0.211 | 0.245 | 0.226 | 0.255 | 0.279 | 0.226 | 0.278 | 0.254
NCI-H460 | 0.801 | 0.998 | 0.704 | 0.94 | 0.722 | 0.895 | 0.88 | 1.04 | 0.159 | 0.175 | 0.152 | 0.267 | 0.183 | 0.523 | 0.481 | 0.479 | 0.439 | 0.463
NCI-H520 | 0.743 | 0.709 | 0.729 | 0.773 | 0.808 | 0.948 | 0.967 | 0.923 | 0.215 | 0.225 | 0.228 | 0.278 | 0.243 | 0.54 | 0.467 | 0.484 | 0.517 | 0.548
NCI-H647 | 0.809 | 0.732 | 1.02 | 0.327 | 1.1 | 1.01 | 1.25 | 0.934 | 0.374 | 0.502 | 0.375 | 0.342 | 0.188 | 0.339 | 0.429 | 0.337 | 0.283 | 0.293
NCI-H650 | 0.581 | 0.393 | 0.591 | 0.401 | 0.649 | 0.758 | 0.431 | 0.564 | 0.373 | 0.328 | 0.319 | 0.329 | 0.314 | 0.355 | 0.319 | 0.348 | 0.303 | 0.339
NCI-H661 | 0.902 | 0.845 | 1.04 | 0.892 | 0.469 | 0.552 | 0.58 | 0.682 | 0.344 | 0.393 | 0.437 | 0.411 | 0.402 | 0.527 | 0.598 | 0.632 | 0.495 | 0.545
NCI-H727 | 0.762 | 0.896 | 0.749 | 0.721 | 0.309 | 0.253 | 0.465 | 0.258 | – | 0.579 | 0.676 | 0.715 | 0.703 | – | 0.876 | 0.938 | 0.848 | 0.838
NCI-H838 | 0.823 | 0.914 | 0.746 | 1.04 | 0.973 | 0.968 | 0.842 | 1 | 0.23 | 0.237 | 0.226 | 0.25 | 0.252 | 0.493 | 0.495 | 0.462 | 0.439 | 0.475
NCI-H1355 | 1.02 | 0.857 | 0.982 | 1.05 | 0.774 | 0.829 | 0.788 | 0.96 | 0.35 | 0.4 | 0.413 | 0.404 | 0.361 | 0.37 | 0.4 | 0.362 | 0.336 | 0.34
NCI-H1437 | 0.856 | 0.713 | 0.858 | 0.957 | 0.862 | 0.95 | 0.976 | 1.01 | 0.292 | 0.336 | 0.31 | 0.329 | 0.325 | 0.604 | 0.54 | 0.586 | 0.61 | 0.572
NCI-H1651 | 0.85 | 0.91 | 0.854 | 0.939 | 0.894 | 1.06 | 1.01 | 1.21 | 0.497 | 0.557 | 0.5 | 0.526 | 0.547 | 0.599 | 0.614 | 0.656 | 0.594 | 0.62
NCI-H1666 | 0.662 | 0.817 | 1.01 | 0.808 | 0.779 | 0.713 | 0.848 | 0.861 | 0.693 | 0.672 | 0.642 | 0.756 | 0.667 | 0.706 | 0.776 | 0.761 | 0.686 | 0.682
NCI-H1734 | 0.662 | 0.717 | 0.682 | 0.746 | 0.953 | 0.869 | 0.895 | 1.1 | 0.359 | 0.398 | 0.349 | 0.355 | 0.353 | 0.535 | 0.536 | 0.56 | 0.522 | 0.452
NCI-H1755 | 0.793 | 0.846 | 0.86 | 0.916 | 1.01 | 1.02 | 0.982 | 1.09 | 0.443 | 0.478 | 0.477 | 0.436 | 0.424 | 0.749 | 0.732 | 0.676 | 0.63 | 0.573
